According to patent publication US6350585B1, “Reagent for assay of amylase isozyme activity” (priority 1998, dated 2002):
One block for each molecule: values may come before it.

Biological target: T1, P-type amylase (Calibzyme P) (Homo sapiens, UniProt P04746)
T1 construct: purchased International Reagents Corporation Calibzyme P
T1 sequence (P04746 16-511): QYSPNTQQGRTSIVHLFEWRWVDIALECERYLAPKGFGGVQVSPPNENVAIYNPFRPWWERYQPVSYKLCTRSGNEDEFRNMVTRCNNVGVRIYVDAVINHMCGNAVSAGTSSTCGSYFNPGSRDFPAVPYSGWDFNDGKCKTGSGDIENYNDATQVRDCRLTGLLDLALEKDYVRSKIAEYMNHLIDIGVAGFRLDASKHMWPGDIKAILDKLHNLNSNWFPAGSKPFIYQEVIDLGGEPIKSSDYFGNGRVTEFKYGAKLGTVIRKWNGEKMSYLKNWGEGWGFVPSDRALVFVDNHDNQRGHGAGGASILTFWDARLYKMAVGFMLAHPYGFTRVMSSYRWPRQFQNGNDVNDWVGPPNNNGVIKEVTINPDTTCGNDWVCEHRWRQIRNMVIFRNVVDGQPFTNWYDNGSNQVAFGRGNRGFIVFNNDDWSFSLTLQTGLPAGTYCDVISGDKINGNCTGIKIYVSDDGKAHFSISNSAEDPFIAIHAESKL
Experiment: amylase isozyme activity assay with potassium thiocyanate as activator, P-type amylase sample
Assay type: biochemical
Conditions: for Change in absorbance, Containing Antibody (Composition A) / Change in absorbance, Without antibody (Composition B) / Relative sensitivity / Percent residual enzyme activity: P-type amylase; for Relative sensitivity: G3CNP at 900 mM = 100; for Percent residual enzyme activity: composition A/B; for relative sensitivity of P-type amylase as multiple of the standard sensitivity: standard = G3CNP at 900 mM
Experimental: A reagent for amylase isozyme activity assay comprising each composition as mentioned below was prepared. In the Table showing the composition, GalG2CNP (Example) is 2-chloro-4-nitrophenyl 4-O-β-D-galactopyranosylmaltoside, and G3CNP (Comparative Example) is 2-chloro-4-nitrophenylmaltotrioside.
S-type amylase-inhibiting antibody 88E8 (manufactured by Roche Diagnostics K.K.) 20 mg/L
S-type amylase-inhibiting antibody 66C7 (manufactured by Roche Diagnostics K.K.) 5 mg/L
Substrate (GalG2CNP (Example) or G3CNP (Comparative Example)) 2.6 mM
(2) P-type Amylase (Calibzyme P, Manufactured by International Reagents Corporation)
Each sample (0.05 mL was added to the reagent A (3 mL) and the reagent B (3 mL), respectively, and the mixtures were allowed to stand at 37° C. for 3 minutes. Then, the change in absorbance at 405 nm was assayed, and the change in absorbance per minute was calculated. The results are shown in Tables 1 and 2.
In the Tables, P is the case where P-type amylase was used as the sample, and S is the case where S-type amylase was used.
Percent residual enzyme activity (%)=(change in absorbance of composition A)/(change in absorbance of composition B)×100
Relative sensitivity (%)=(change in absorbance of composition B)/(change in absorbance of Comparative Example wherein potassium thiocyanate was 900 mM)×100

Change in absorbance, Containing Antibody (Composition A) (potassium thiocyanate 0 mM): 26.2 mABS/min | Change in absorbance, Without antibody (Composition B) (potassium thiocyanate 0 mM): 26.7 mABS/min | Relative sensitivity (potassium thiocyanate 0 mM): 55.7% | Percent residual enzyme activity (potassium thiocyanate 0 mM): 98.1% | Change in absorbance, Containing Antibody (Composition A) (potassium thiocyanate 50 mM): 40.6 mABS/min | Change in absorbance, Without antibody (Composition B) (potassium thiocyanate 50 mM): 42.1 mABS/min | Relative sensitivity (potassium thiocyanate 50 mM): 87.9% | Percent residual enzyme activity (potassium thiocyanate 50 mM): 96.4% | Change in absorbance, Containing Antibody (Composition A) (potassium thiocyanate 100 mM): 49.3 mABS/min | Change in absorbance, Without antibody (Composition B) (potassium thiocyanate 100 mM): 51.1 mABS/min | Relative sensitivity (potassium thiocyanate 100 mM): 106.7% | Percent residual enzyme activity (potassium thiocyanate 100 mM): 96.5% | Change in absorbance, Containing Antibody (Composition A) (potassium thiocyanate 140 mM): 52.4 mABS/min | Change in absorbance, Without antibody (Composition B) (potassium thiocyanate 140 mM): 56.0 mABS/min | Relative sensitivity (potassium thiocyanate 140 mM): 116.9% | Percent residual enzyme activity (potassium thiocyanate 140 mM): 93.6% | Change in absorbance, Containing Antibody (Composition A) (potassium thiocyanate 200 mM): 59.5 mABS/min | Change in absorbance, Without antibody (Composition B) (potassium thiocyanate 200 mM): 61.9 mABS/min | Relative sensitivity (potassium thiocyanate 200 mM): 129.2% | Percent residual enzyme activity (potassium thiocyanate 200 mM): 96.1% | Change in absorbance, Containing Antibody (Composition A) (potassium thiocyanate 300 mM): 66.6 mABS/min | Change in absorbance, Without antibody (Composition B) (potassium thiocyanate 300 mM): 69.1 mABS/min | Relative sensitivity (potassium thiocyanate 300 mM): 144.3% | Percent residual enzyme activity (potassium thiocyanate 300 mM): 96.4% | Change in absorbance, Containing Antibody (Composition A) (potassium thiocyanate 400 mM): 70.3 mABS/min | Change in absorbance, Without antibody (Composition B) (potassium thiocyanate 400 mM): 71.7 mABS/min | Relative sensitivity (potassium thiocyanate 400 mM): 149.7% | Percent residual enzyme activity (potassium thiocyanate 400 mM): 98.0% | Change in absorbance, Containing Antibody (Composition A) (potassium thiocyanate 500 mM): 71.3 mABS/min | Change in absorbance, Without antibody (Composition B) (potassium thiocyanate 500 mM): 70.9 mABS/min | Relative sensitivity (potassium thiocyanate 500 mM): 148.0% | Percent residual enzyme activity (potassium thiocyanate 500 mM): 100.6% | Change in absorbance, Containing Antibody (Composition A) (potassium thiocyanate 600 mM): 70.4 mABS/min | Change in absorbance, Without antibody (Composition B) (potassium thiocyanate 600 mM): 68.0 mABS/min | Relative sensitivity (potassium thiocyanate 600 mM): 142.0% | Percent residual enzyme activity (potassium thiocyanate 600 mM): 103.5% | Change in absorbance, Containing Antibody (Composition A) (potassium thiocyanate 700 mM): 67.9 mABS/min | Change in absorbance, Without antibody (Composition B) (potassium thiocyanate 700 mM): 67.2 mABS/min | Relative sensitivity (potassium thiocyanate 700 mM): 140.3% | Percent residual enzyme activity (potassium thiocyanate 700 mM): 101.0% | Change in absorbance, Containing Antibody (Composition A) (potassium thiocyanate 800 mM): 63.7 mABS/min | Change in absorbance, Without antibody (Composition B) (potassium thiocyanate 800 mM): 62.6 mABS/min | Relative sensitivity (potassium thiocyanate 800 mM): 130.7% | Percent residual enzyme activity (potassium thiocyanate 800 mM): 101.8% | Change in absorbance, Containing Antibody (Composition A) (potassium thiocyanate 900 mM): 61.6 mABS/min | Change in absorbance, Without antibody (Composition B) (potassium thiocyanate 900 mM): 60.1 mABS/min | Relative sensitivity (potassium thiocyanate 900 mM): 125.5% | Percent residual enzyme activity (potassium thiocyanate 900 mM): 102.5% | relative sensitivity of P-type amylase as multiple of the standard sensitivity (potassium thiocyanate 200 mM): about 1.3
Structure (SMILES): O=[N+]([O-])c1ccc(O[C@H]2O[C@H](CO)[C@@H](O[C@H]3O[C@H](CO)[C@@H](O[C@@H]4O[C@H](CO)[C@H](O)[C@H](O)[C@H]4O)[C@H](O)[C@H]3O)[C@H](O)[C@H]2O)c(Cl)c1 [GalG2CNP, 2-chloro-4-nitrophenyl 4-O-β-D-galactopyranosylmaltoside]

Change in absorbance, Containing Antibody (Composition A) (potassium thiocyanate 0 mM): 9.3 mABS/min | Change in absorbance, Without antibody (Composition B) (potassium thiocyanate 0 mM): 9.3 mABS/min | Relative sensitivity (potassium thiocyanate 0 mM): 19.4% | Percent residual enzyme activity (potassium thiocyanate 0 mM): 100.0% | Change in absorbance, Containing Antibody (Composition A) (potassium thiocyanate 50 mM): 17.1 mABS/min | Change in absorbance, Without antibody (Composition B) (potassium thiocyanate 50 mM): 17.7 mABS/min | Relative sensitivity (potassium thiocyanate 50 mM): 37.0% | Percent residual enzyme activity (potassium thiocyanate 50 mM): 96.6% | Change in absorbance, Containing Antibody (Composition A) (potassium thiocyanate 100 mM): 22.3 mABS/min | Change in absorbance, Without antibody (Composition B) (potassium thiocyanate 100 mM): 23.4 mABS/min | Relative sensitivity (potassium thiocyanate 100 mM): 48.9% | Percent residual enzyme activity (potassium thiocyanate 100 mM): 95.3% | Change in absorbance, Containing Antibody (Composition A) (potassium thiocyanate 140 mM): 26.1 mABS/min | Change in absorbance, Without antibody (Composition B) (potassium thiocyanate 140 mM): 27.2 mABS/min | Relative sensitivity (potassium thiocyanate 140 mM): 56.8% | Percent residual enzyme activity (potassium thiocyanate 140 mM): 96.0% | Change in absorbance, Containing Antibody (Composition A) (potassium thiocyanate 200 mM): 30.3 mABS/min | Change in absorbance, Without antibody (Composition B) (potassium thiocyanate 200 mM): 31.6 mABS/min | Relative sensitivity (potassium thiocyanate 200 mM): 66.0% | Percent residual enzyme activity (potassium thiocyanate 200 mM): 95.9% | Change in absorbance, Containing Antibody (Composition A) (potassium thiocyanate 300 mM): 37.3 mABS/min | Change in absorbance, Without antibody (Composition B) (potassium thiocyanate 300 mM): 39.3 mABS/min | Relative sensitivity (potassium thiocyanate 300 mM): 82.0% | Percent residual enzyme activity (potassium thiocyanate 300 mM): 94.9% | Change in absorbance, Containing Antibody (Composition A) (potassium thiocyanate 400 mM): 42.6 mABS/min | Change in absorbance, Without antibody (Composition B) (potassium thiocyanate 400 mM): 43.7 mABS/min | Relative sensitivity (potassium thiocyanate 400 mM): 91.2% | Percent residual enzyme activity (potassium thiocyanate 400 mM): 97.5% | Change in absorbance, Containing Antibody (Composition A) (potassium thiocyanate 500 mM): 46.6 mABS/min | Change in absorbance, Without antibody (Composition B) (potassium thiocyanate 500 mM): 46.7 mABS/min | Relative sensitivity (potassium thiocyanate 500 mM): 97.5% | Percent residual enzyme activity (potassium thiocyanate 500 mM): 99.8% | Change in absorbance, Containing Antibody (Composition A) (potassium thiocyanate 600 mM): 48.1 mABS/min | Change in absorbance, Without antibody (Composition B) (potassium thiocyanate 600 mM): 47.5 mABS/min | Relative sensitivity (potassium thiocyanate 600 mM): 99.2% | Percent residual enzyme activity (potassium thiocyanate 600 mM): 101.3% | Change in absorbance, Containing Antibody (Composition A) (potassium thiocyanate 700 mM): 49.9 mABS/min | Change in absorbance, Without antibody (Composition B) (potassium thiocyanate 700 mM): 49.4 mABS/min | Relative sensitivity (potassium thiocyanate 700 mM): 103.1% | Percent residual enzyme activity (potassium thiocyanate 700 mM): 101.0% | Change in absorbance, Containing Antibody (Composition A) (potassium thiocyanate 800 mM): 49.8 mABS/min | Change in absorbance, Without antibody (Composition B) (potassium thiocyanate 800 mM): 48.8 mABS/min | Relative sensitivity (potassium thiocyanate 800 mM): 101.9% | Percent residual enzyme activity (potassium thiocyanate 800 mM): 102.0% | Change in absorbance, Containing Antibody (Composition A) (potassium thiocyanate 900 mM): 48.6 mABS/min | Change in absorbance, Without antibody (Composition B) (potassium thiocyanate 900 mM): 47.9 mABS/min | Relative sensitivity (potassium thiocyanate 900 mM): 100.0% | Percent residual enzyme activity (potassium thiocyanate 900 mM): 101.5% | relative sensitivity of P-type amylase as multiple of the standard sensitivity (potassium thiocyanate 200 mM): about ⅔
Structure (SMILES): O=[N+]([O-])c1ccc(O[C@H]2O[C@H](CO)[C@@H](O[C@H]3O[C@H](CO)[C@@H](O[C@H]4O[C@H](CO)[C@@H](O)[C@H](O)[C@H]4O)[C@H](O)[C@H]3O)[C@H](O)[C@H]2O)c(Cl)c1 [Example G3CNP, 2-chloro-4-nitrophenylmaltotrioside, reference compound]
